According to US4345938A, “Herbicidal 2-haloacetanilides” (Monsanto Company, priority 1980, dated 1982):
Read-outs that look alike come from different tables or passages of the source.

How the values were obtained:
Assay type in all cases: in vivo
Sagittaria trifolia [1] = test: Greenhouse transplant rice test, ST; settings: Sagittaria trifolia, about 3 WAT, read-out: Percent Inhibition, ST
Excerpt: (§1) The test procedure used in this greenhouse test is as follows: Ray silt loam top soil containing about 0.05% by weight of krillium and sifted through a […] screen is fumigated about 5-10 days prior to use. Pots are then filled with said Ray silt loam soil to a level to allow for a 1 in. (2.54 cm) flooding depth. Rice plants (Bluebelle) of 2 to 3 weeks age are transplanted to the pots and bulbs or seeds of the test weeds also planted in the pots. The pots are then flooded and the test chemical applied to the surface of the flood water. The flood water is reduced to allow for germination of the Echinochloa crus-galli (barnyardgrass) seed and subsequently reflooded and maintained in that condition. Observations of percent inhibition using a scale of 0-100% are made about 3 weeks after transplant (WAT).
(§2) The test data in Table III for all compounds was obtained under identical test conditions. The weeds used in the tests herein have the following abbreviations in the tables: Echinochloa crus-galli (EC), Monochloria vaginalis (MV), Cyperus Serotinus (CS), Eleocharis Kuroguwai (EK) and Sagittaria trifolia (ST).

Monochoria vaginalis = test: Field transplant rice test, applied 0 DAT, MV; settings: Pontederia vaginalis, 0 h, read-out: Percent Inhibition, MV; for inhibition at 375 g/ha: 0.375 Kg/Ha; for inhibition at 750 g/ha: 0.75 Kg/Ha; for inhibition at 1500 g/ha: 1.5 Kg/Ha; for inhibition at 3000 g/ha: 3.0 Kg/Ha
Method: as §2
(§3) In further comparative tests, a preferred compound of this invention (Example 1) was tested in the field with prior art Compounds A-D. These tests were conducted under conditions reflecting herbicide application times generally favorable to all herbicides in the test. The timing of application of herbicides to transplant rice is very important, whether, as in some instances, prior to transplanting the rice; in other instances, at the time of transplanting or else after transplanting. Application times are conventionally referred to as "days before transplant" (DBT) or "days after transplant" ("DAT"). The field test data in Table IV was obtained from a test in which the herbicides were applied at the time of transplant, i.e., "0 DAT", with observations being made weekly up to six weeks after transplant ("WAT") beginning at two weeks after transplant; for illustrative and representative purposes, only the early, middle and late period observations, i.e., 2 WAT, 4 WAT and 6 WAT, are shown in Table IV. The data in Table IV is for rates of application common to all herbicides in the test, i.e., from 3.0 kg/ha (2.67 lb/A) down to 0.375 kg/ha (0.34 lb/A). All herbicides were applied at their actual or expected use rates, i.e., as granules containing 2.5% by weight herbicide for the compound of Example 1, Compounds B, C and D and 5.0% by weight for Compound A.

Cyperus serotinus = test: Greenhouse transplant rice test, CS; settings: about 3 WAT, read-out: Percent Inhibition, CS
Excerpt: as §1, §2

Eleocharis kuroguwai = test: Greenhouse transplant rice test, EK; settings: about 3 WAT, read-out: Percent Inhibition, EK
Excerpt: as §1, §2

Sagittaria trifolia [2] = test: Field transplant rice test, applied 0 DAT, ST; settings: 0 h, read-out: Percent Inhibition, ST; for inhibition at 375 g/ha: 0.375 Kg/Ha; for inhibition at 750 g/ha: 0.75 Kg/Ha; for inhibition at 1500 g/ha: 1.5 Kg/Ha; for inhibition at 3000 g/ha: 3.0 Kg/Ha
Method: as §2, §3

SMILES | inhibition at 375 g/ha (Monochoria vaginalis; 2 WAT) [%] | inhibition at 375 g/ha (Monochoria vaginalis; 4 WAT) [%] | inhibition at 375 g/ha (Monochoria vaginalis; 6 WAT) [%] | inhibition at 750 g/ha (Monochoria vaginalis; 2 WAT) [%] | inhibition at 750 g/ha (Monochoria vaginalis; 4 WAT) [%] | inhibition at 750 g/ha (Monochoria vaginalis; 6 WAT) [%] | inhibition at 1500 g/ha (Monochoria vaginalis; 2 WAT) [%] | inhibition at 1500 g/ha (Monochoria vaginalis; 4 WAT) [%] | inhibition at 1500 g/ha (Monochoria vaginalis; 6 WAT) [%] | inhibition at 3000 g/ha (Monochoria vaginalis; 2 WAT) [%] | inhibition at 3000 g/ha (Monochoria vaginalis; 4 WAT) [%] | inhibition at 3000 g/ha (Monochoria vaginalis; 6 WAT) [%] | inhibition at 375 g/ha (Sagittaria trifolia [2]; 2 WAT) [%] | inhibition at 375 g/ha (Sagittaria trifolia [2]; 4 WAT) [%] | inhibition at 375 g/ha (Sagittaria trifolia [2]; 6 WAT) [%] | inhibition at 750 g/ha (Sagittaria trifolia [2]; 2 WAT) [%] | inhibition at 750 g/ha (Sagittaria trifolia [2]; 4 WAT) [%] | inhibition at 750 g/ha (Sagittaria trifolia [2]; 6 WAT) [%] | inhibition at 1500 g/ha (Sagittaria trifolia [2]; 2 WAT) [%] | inhibition at 1500 g/ha (Sagittaria trifolia [2]; 4 WAT) [%] | also measured
CCCCOCN(C(=O)CCl)c1c(CC)cccc1CC [Compound A, 2',6'-diethyl-N-(n-butoxymethyl)-2-chloroacetanilide] | 98 | 87 | 82 | 100 | 98 | 100 | 100 | 100 | 100 | 100 | 100 | 100 | 37 | 22 | 7 | 52 | 20 | 15 | 60 | 33 | inhibition at 280 g/ha (Sagittaria trifolia [1]; 0.28 Kg/Ha): 15%; inhibition at 560 g/ha (Sagittaria trifolia [1]; 0.56 Kg/Ha): 45%; inhibition at 1120 g/ha (Sagittaria trifolia [1]; 1.12 Kg/Ha): 30%; inhibition at 2240 g/ha (Sagittaria trifolia [1]; 2.24 Kg/Ha): 15%; inhibition at 280 g/ha (Cyperus serotinus; 0.28 Kg/Ha): 100%; inhibition at 560 g/ha (Cyperus serotinus; 0.56 Kg/Ha): 85%; inhibition at 1120 g/ha (Cyperus serotinus; 1.12 Kg/Ha): 90%; inhibition at 2240 g/ha (Cyperus serotinus; 2.24 Kg/Ha): 100%; inhibition at 280 g/ha (Eleocharis kuroguwai; 0.28 Kg/Ha): 50%; inhibition at 560 g/ha (Eleocharis kuroguwai; 0.56 Kg/Ha): 100%; inhibition at 1120 g/ha (Eleocharis kuroguwai; 1.12 Kg/Ha): 100%; inhibition at 2240 g/ha (Eleocharis kuroguwai; 2.24 Kg/Ha): 100%; inhibition at 1500 g/ha (Sagittaria trifolia [2]; 6 WAT): 20%; inhibition at 3000 g/ha (Sagittaria trifolia [2]; 2 WAT): 42%; inhibition at 3000 g/ha (Sagittaria trifolia [2]; 4 WAT): 33%; inhibition at 3000 g/ha (Sagittaria trifolia [2]; 6 WAT): 12%
CCCCOCCN(C(=O)CCl)c1c(CC)cccc1CC [Compound B, 2',6'-diethyl-N-(n-butoxyethyl)-2-chloroacetanilide] | 97 | 90 | 80 | 95 | 98 | 100 | 98 | 100 | 100 | 100 | 100 | 97 | 27 | 10 | 5 | 27 | 15 | 7 | 62 | 12 | inhibition at 1500 g/ha (Sagittaria trifolia [2]; 6 WAT): 7%; inhibition at 3000 g/ha (Sagittaria trifolia [2]; 2 WAT): 32%; inhibition at 3000 g/ha (Sagittaria trifolia [2]; 4 WAT): 30%; inhibition at 3000 g/ha (Sagittaria trifolia [2]; 6 WAT): 13%
CCCCOCN(C(=O)CCl)c1c(C)cccc1C(C)(C)C [Compound C, 2'-methyl-6'-tert-butyl-N-(n-butoxymethyl)-2-chloroacetanilide] | 100 | 100 | 97 | 100 | 100 | 100 | 100 | 100 | 100 | 100 | 100 | 100 | 30 | 5 | 0 | 33 | 18 | 8 | 38 | 30 | inhibition at 1500 g/ha (Sagittaria trifolia [2]; 6 WAT): 17%; inhibition at 3000 g/ha (Sagittaria trifolia [2]; 2 WAT): 53%; inhibition at 3000 g/ha (Sagittaria trifolia [2]; 4 WAT): 35%; inhibition at 3000 g/ha (Sagittaria trifolia [2]; 6 WAT): 18%
CCCOCCN(C(=O)CCl)c1c(CC)cccc1CC [Compound D, 2',6'-diethyl-N-(n-propoxyethyl)-2-chloroacetanilide] | 90 | 95 | 83 | 100 | 99 | 100 | 98 | 100 | 100 | 100 | 98 | 98 | 20 | 2 | 0 | 28 | 10 | 7 | 23 | 27 | inhibition at 1500 g/ha (Sagittaria trifolia [2]; 6 WAT): 22%; inhibition at 3000 g/ha (Sagittaria trifolia [2]; 2 WAT): 22%; inhibition at 3000 g/ha (Sagittaria trifolia [2]; 4 WAT): 28%; inhibition at 3000 g/ha (Sagittaria trifolia [2]; 6 WAT): 18%
